Values quoted from earlier work, collected in publication PMC3159817 (Journal of chemical information and modeling, 2011).

Experiments:
[1] = system: RNase H active site of RT with DNA:RNA substrate bound
[2] = system: HIV-1 reverse transcriptase Y501 mutants

Question: Which “competition with nucleic acid substrate” value [1] does the source give for CC(C)c1ccc(O)c(=O)c(O)c1 [β-thujaplicinol] here?
Answer: appears unable to compete with the intact nucleic acid substrates

Question: Which “effect of Y501 mutations on inhibition” value [2] does the source give for CC(C)(C)c1ccc(C(=O)NN=Cc2c(O)ccc3ccccc23)cc1 [BBNH, N-(4-tert-butylbenzoyl)-2-hydroxy-1-naphthaldehyde hydrazone] here?
Answer: mutations of Y501 result in resistance to inhibition
